# Columns and labels:
# AVEFA = test: greenhouse herbicidal test, post-emergence treatment; type: in vivo, Avena fatua; conditions: post-emergence method, scale from 0 to 100
# Source text: (§1) The seeds of the test plants were sown separately for each species. For the pre-emergence treatment, the active ingredients, which had been suspended or emulsified in water, were applied directly after sowing by means of finely distributing nozzles. The containers were irrigated gently to promote germination and growth and subsequently covered with transparent plastic hoods until the test plants had rooted. This cover caused uniform germination of the test plants, unless this had been impaired by the active ingredients. For the post-emergence treatment, the test plants were first grown to a height of 3 to 15 cm, depending on the plant habit, and only then treated with the active ingredients which had been suspended or emulsified in water. For this purpose, the test plants were either sown directly and grown in the same containers, or they were first grown separately as seedlings and transplanted into the test containers a few days prior to treatment. Depending on the species, the test plants were kept at 10-25° C. or 20-35° C., respectively. The test period extended over 2 to 4 weeks. During this time, the test plants were tended, and their response to the individual treatments was evaluated. Evaluation was carried out using a scale from 0 to 100. 100 means no emergence of the test plants, or complete destruction of at least the aerial moieties, and 0 means no damage, or normal course of growth. A good herbicidal activity is given at values of 65 to 90 and a very good herbicidal activity is given at values of 90 to 100. The test plants used in the greenhouse experiments were of the following species: [table]
# ALOMY = test: as above; type: in vivo, Alopercurus myosuroides; conditions: post-emergence method, scale from 0 to 100
# Source text: as §1, with “100 means no emergence of the test plants, or complete destruction of at least the aerial moieties, and 0 means no damage, or normal course of growth. A good herbicidal activity is given at values of 65 to 90 and a very good herbicidal activity is given at values of 90 to 100. The test plants used in the greenhouse experiments were of the following species: [table]” left out
# ECHCG [1] = test: greenhouse herbicidal test, pre-emergence treatment; type: in vivo, Echinocloa crus-galli; conditions: pre-emergence method, scale from 0 to 100
# Source text: as §1, with “100 means no emergence of the test plants, or complete destruction of at least the aerial moieties, and 0 means no damage, or normal course of growth. A good herbicidal activity is given at values of 65 to 90 and a very good herbicidal activity is given at values of 90 to 100. The test plants used in the greenhouse experiments were of the following species: [table]” left out
# APESV = test: as above; type: in vivo, Apera spica-venti; conditions: pre-emergence method, scale from 0 to 100
# Source text: as §1, with “100 means no emergence of the test plants, or complete destruction of at least the aerial moieties, and 0 means no damage, or normal course of growth. A good herbicidal activity is given at values of 65 to 90 and a very good herbicidal activity is given at values of 90 to 100. The test plants used in the greenhouse experiments were of the following species: [table]” left out
# SETVI = test: greenhouse herbicidal test, post-emergence treatment; type: in vivo, Setaria viridis; conditions: post-emergence method, application rate 1.000 kg/ha; scale from 0 to 100
# Source text: as §1, with “100 means no emergence of the test plants, or complete destruction of at least the aerial moieties, and 0 means no damage, or normal course of growth. A good herbicidal activity is given at values of 65 to 90 and a very good herbicidal activity is given at values of 90 to 100. The test plants used in the greenhouse experiments were of the following species: [table]” left out
# ECHCG [2] = test: as above; type: in vivo, Echinocloa crus-galli; conditions: post-emergence method, application rate 1.000 kg/ha; scale from 0 to 100
# Source text: as §1, with “100 means no emergence of the test plants, or complete destruction of at least the aerial moieties, and 0 means no damage, or normal course of growth. A good herbicidal activity is given at values of 65 to 90 and a very good herbicidal activity is given at values of 90 to 100. The test plants used in the greenhouse experiments were of the following species: [table]” left out
# ABUTH = test: as above; type: in vivo, Abutilon theophrasti; conditions: post-emergence method, application rate 0.250 kg/ha; scale from 0 to 100
# Source text: as §1, with “100 means no emergence of the test plants, or complete destruction of at least the aerial moieties, and 0 means no damage, or normal course of growth. A good herbicidal activity is given at values of 65 to 90 and a very good herbicidal activity is given at values of 90 to 100. The test plants used in the greenhouse experiments were of the following species: [table]” left out
# AMARE = test: as above; type: in vivo, Amaranthus retroflexus; conditions: post-emergence method, application rate 0.500 kg/ha; scale from 0 to 100
# Source text: as §1, with “100 means no emergence of the test plants, or complete destruction of at least the aerial moieties, and 0 means no damage, or normal course of growth. A good herbicidal activity is given at values of 65 to 90 and a very good herbicidal activity is given at values of 90 to 100. The test plants used in the greenhouse experiments were of the following species: [table]” left out
compound,measurement,setting,value
"COC(=O)C[C@H](C)NC(=O)C(F)C(=O)Nc1cc(Cl)cc(Cl)c1 (stereo partly drawn) [I.5, methyl (3S)-3-[[3-(3,5-dichloroanilino)-2-fluoro-3-oxo-propanoyl]amino]butanoate]",herbicidal activity against AVEFA,AVEFA; application rate 1.000 kg/ha,good (A good herbicidal activity is given at values of 65 to 90)
same,herbicidal activity against ALOMY,ALOMY; application rate 1.000 kg/ha,very good (a very good herbicidal activity is given at values of 90 to 100)
same,herbicidal activity against ECHCG,ECHCG [1]; application rate 1.000 kg/ha,good (A good herbicidal activity is given at values of 65 to 90)
"COC(=O)C[C@H](C)NC(=O)C(F)(F)C(=O)Nc1cc(Cl)cc(Cl)c1 [I.2, methyl (3S)-3-[[3-(3,5-dichloroanilino)-2,2-difluoro-3-oxo-propanoyl]amino]butanoate]",herbicidal activity against APESV,APESV; application rate 0.500 kg/ha,good (A good herbicidal activity is given at values of 65 to 90)
COC(=O)CC(C)NC(=O)C(F)(Br)C(=O)Nc1cc(Cl)cc(Cl)c1 (stereo not shown) [I.12],herbicidal activity against SETVI,SETVI,very good (a very good herbicidal activity is given at values of 90 to 100)
same,herbicidal activity against ECHCG,ECHCG [2],very good (a very good herbicidal activity is given at values of 90 to 100)
same,herbicidal activity against AVEFA,AVEFA; application rate 1.000 kg/ha,very good (a very good herbicidal activity is given at values of 90 to 100)
"COC(=O)CCCNC(=O)C(F)(F)C(=O)Nc1cc(Cl)cc(Cl)c1 [I.1, methyl 4-[[3-(3,5-dichloroanilino)-2,2-difluoro-3-oxo-propanoyl]amino]butanoate]",herbicidal activity against AVEFA,AVEFA; application rate 0.500 kg/ha,good (A good herbicidal activity is given at values of 65 to 90)
CC(CC(=O)OC(C)C)NC(=O)C(C)(F)C(=O)Nc1cc(F)cc(Cl)c1 (stereo not shown) [I.16],herbicidal activity against APESV,APESV; application rate 0.250 kg/ha,good (A good herbicidal activity is given at values of 65 to 90)
"COC(=O)[C@@H]1CCC(NC(=O)C(F)(F)C(=O)Nc2cc(Cl)cc(Cl)c2)C1 (stereo partly drawn) [I.3, methyl (1R)-3-[[3-(3,5-dichloroanilino)-2,2-difluoro-3-oxo-propanoyl]amino]cyclopentanecarboxylate]",herbicidal activity against ALOMY,ALOMY; application rate 0.250 kg/ha,very good (a very good herbicidal activity is given at values of 90 to 100)
same,herbicidal activity against ABUTH,ABUTH,good (A good herbicidal activity is given at values of 65 to 90)
same,herbicidal activity against ECHCG,ECHCG [1]; application rate 0.250 kg/ha,good (A good herbicidal activity is given at values of 65 to 90)
COC(=O)CC(C)NC(=O)C(F)(C(=O)Nc1cc(Cl)cc(Cl)c1)C(C)O (stereo not shown) [I.6],herbicidal activity against AMARE,AMARE,very good (a very good herbicidal activity is given at values of 90 to 100)

# From patent US12679802B2, “Malonamides and their use as herbicides” (BASF SE, priority 2021, dated 2026)
